We go through seven compounds from patent publication US8969343B2, “Histone demethylase inhibitors” (priority 2012, dated 2015).

One assay has as its target T1, JMJD2C (Homo sapiens, UniProt Q9H3R0).
T1 sequence (Q9H3R0 2-372): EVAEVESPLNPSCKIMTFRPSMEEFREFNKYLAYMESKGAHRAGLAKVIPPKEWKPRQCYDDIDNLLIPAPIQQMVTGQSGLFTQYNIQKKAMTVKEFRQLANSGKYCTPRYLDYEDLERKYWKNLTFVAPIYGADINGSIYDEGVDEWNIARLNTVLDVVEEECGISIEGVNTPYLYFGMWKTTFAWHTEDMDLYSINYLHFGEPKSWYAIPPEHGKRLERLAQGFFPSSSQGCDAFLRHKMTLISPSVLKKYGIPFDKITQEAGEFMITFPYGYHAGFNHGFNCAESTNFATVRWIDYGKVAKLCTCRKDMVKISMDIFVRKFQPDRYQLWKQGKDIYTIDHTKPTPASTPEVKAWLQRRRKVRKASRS
Kind of assay: JMJD2C in vitro enzyme inhibition assay (TR-FRET). It counts as biochemical. The note with it: 0.3 nM JMJD2C, 300 nM H3K9me3-biotin peptide, 2 μM alpha-ketoglutaric acid. The method, then: (§1) This assay determines the ability of a test compound to inhibit Jarid1A, Jarid1B, and JMJD2C demethylase activity.
Reaction product was determined quantitatively by TR-FRET after the addition of detection reagent Phycolink Streptavidin-allophycocyanin (Prozyme) and Europium-anti-di-methylated histone H3 lysine 9 (H3K9me2) antibody (PerkinElmer) in the presence of 5 mM EDTA in LANCE detection buffer (PerkinElmer) at a final concentration of 50 nM and 1 nM, respectively.
The assay reaction was initiated by the following: 2 μl of the mixture of 900 nM H3K9me3-biotin labeled peptide and 6 μM alpha-ketoglutaric acid with 2 μl of 11-point serial diluted inhibitor in 3% DMSO were added to each well of the plate, followed by the addition of 2 μl of 0.9 nM JMJD2C to initiate the reaction. The reaction mixture was incubated at room temperature for 30 minutes, and terminated by the addition of 6 μl of 5 mM EDTA in LANCE detection buffer containing 100 nM Phycolink Streptavidin-allophycocyanin and 2 nM Europium-anti-H3K9me2 antibody.

Another assay addresses T2, Jarid1A (Homo sapiens, UniProt P29375).
T2 construct: purchased BPS Bioscience 50110
T2 sequence (P29375 1-1090): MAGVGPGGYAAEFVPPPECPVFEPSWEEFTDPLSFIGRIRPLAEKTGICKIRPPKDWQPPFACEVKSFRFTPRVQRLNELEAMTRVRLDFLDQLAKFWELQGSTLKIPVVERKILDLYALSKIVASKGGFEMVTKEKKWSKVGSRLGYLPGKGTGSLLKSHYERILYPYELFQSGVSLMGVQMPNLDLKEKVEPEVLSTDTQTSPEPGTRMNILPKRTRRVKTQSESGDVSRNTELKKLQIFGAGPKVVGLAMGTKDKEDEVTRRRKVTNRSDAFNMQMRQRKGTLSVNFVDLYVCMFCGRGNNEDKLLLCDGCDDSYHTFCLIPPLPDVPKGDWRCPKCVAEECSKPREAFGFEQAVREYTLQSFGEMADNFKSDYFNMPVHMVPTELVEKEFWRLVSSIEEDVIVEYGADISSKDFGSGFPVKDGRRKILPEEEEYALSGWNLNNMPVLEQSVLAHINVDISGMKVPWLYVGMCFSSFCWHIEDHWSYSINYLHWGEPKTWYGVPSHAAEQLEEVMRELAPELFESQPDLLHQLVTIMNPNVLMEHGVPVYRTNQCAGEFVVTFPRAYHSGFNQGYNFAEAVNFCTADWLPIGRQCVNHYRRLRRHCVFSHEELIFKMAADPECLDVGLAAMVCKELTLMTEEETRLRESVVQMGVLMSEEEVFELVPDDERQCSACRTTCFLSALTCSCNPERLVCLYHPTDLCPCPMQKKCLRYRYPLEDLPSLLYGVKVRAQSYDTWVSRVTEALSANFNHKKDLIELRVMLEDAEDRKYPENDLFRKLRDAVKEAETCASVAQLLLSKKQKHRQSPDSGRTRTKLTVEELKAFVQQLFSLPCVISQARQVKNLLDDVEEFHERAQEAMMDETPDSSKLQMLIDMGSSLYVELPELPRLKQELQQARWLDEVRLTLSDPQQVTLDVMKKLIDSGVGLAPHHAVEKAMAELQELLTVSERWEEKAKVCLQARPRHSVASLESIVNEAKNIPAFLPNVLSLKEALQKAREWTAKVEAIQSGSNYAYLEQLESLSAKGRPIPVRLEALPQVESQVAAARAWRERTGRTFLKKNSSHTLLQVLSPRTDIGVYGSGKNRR
Kind of assay: Jarid1A in vitro enzyme inhibition assay (TR-FRET). The class given is biochemical. How it is done:
as §1
The enzymatic assay of Jarid1A activity is based upon Time Resolved-Fluorescence Resonance Energy Transfer (TR-FRET) detection. […] The assay reaction was initiated by the following: 2 μl of the mixture of 900 nM H3K4me3-biotin labeled peptide and 6 μM alpha-ketoglutaric acid with 2 μl of 11-point serial diluted inhibitor in 3% DMSO was added to each well of plate, followed by the addition of 2 μl of 3 nM Jarid1A to initiate the reaction. The reaction mixture was incubated at room temperature for 30 minutes, and terminated by the addition of 6 μl of 5 mM EDTA in LANCE detection buffer containing 50 nM Phycolink Streptavidin-allophycocyanin and 2 nM Europium-anti-H3K4me1-2 antibody.
For orientation: Time-resolved FRET reads energy transfer from a long-lived donor to a nearby acceptor.

The target of another assay is T3, Jarid1B (Homo sapiens, UniProt Q9UGL1).
T3 sequence (Q9UGL1 2-751): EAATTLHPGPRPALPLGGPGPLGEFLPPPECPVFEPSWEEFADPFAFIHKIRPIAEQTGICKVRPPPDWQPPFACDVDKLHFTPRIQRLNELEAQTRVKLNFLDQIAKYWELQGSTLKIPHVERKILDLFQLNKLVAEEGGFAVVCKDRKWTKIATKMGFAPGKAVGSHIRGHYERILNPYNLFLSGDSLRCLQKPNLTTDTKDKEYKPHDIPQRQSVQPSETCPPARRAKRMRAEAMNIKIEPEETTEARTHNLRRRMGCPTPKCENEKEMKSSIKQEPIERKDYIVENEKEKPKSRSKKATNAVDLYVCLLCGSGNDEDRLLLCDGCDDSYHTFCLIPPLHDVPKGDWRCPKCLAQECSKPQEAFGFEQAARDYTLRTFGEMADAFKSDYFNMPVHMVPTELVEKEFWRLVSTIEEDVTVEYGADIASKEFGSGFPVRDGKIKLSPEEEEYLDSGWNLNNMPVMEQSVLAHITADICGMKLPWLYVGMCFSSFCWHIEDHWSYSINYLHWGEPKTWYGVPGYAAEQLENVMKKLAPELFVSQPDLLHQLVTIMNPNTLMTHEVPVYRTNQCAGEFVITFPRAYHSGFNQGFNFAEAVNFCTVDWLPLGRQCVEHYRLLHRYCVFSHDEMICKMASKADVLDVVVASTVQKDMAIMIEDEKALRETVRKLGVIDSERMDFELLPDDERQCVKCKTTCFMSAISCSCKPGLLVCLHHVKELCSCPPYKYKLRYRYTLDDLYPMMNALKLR
Kind of assay: Jarid1B in vitro enzyme inhibition assay (TR-FRET). The note with it: 0.8 nM Jarid1B, 300 nM H3K4me3-biotin peptide, 2 μM alpha-ketoglutaric acid. It counts as biochemical. The method, then:
as §1
The reaction mixture was incubated at room temperature for 30 minutes, and terminated by the addition of 6 μl of 5 mM EDTA in LANCE detection buffer containing 50 nM Phycolink Streptavidin-allophycocyanin and 2 nM Europium-anti-H3K4me1-2 antibody.

The test system of another assay is KDM5A/B. Kind of assay: In vitro cell-based assay: tri-methyl H3K4 immuno-blotting in ZR-75-1 breast cancer cells. The note with it: 72 hours, tri-methyl H3K4, relative IC50, read-out: Cellular IC50. How it is done: This quantitative immuno-blotting assay measures the amount tri-methylated histone H3 at amino acid Lysine number 4, a specific substrate […] of the direct enzymatic activity of the histone demethylases KDM5A and KDM5B from extracts of the ZR-75-1 breast cancer cell line.
This assay is a fluorometric immunoassay for the quantification of tri-methyl H3K4 extracted from cells treated with test compound and is used as a measure of the cellular inhibition of KDM5A/B.
Extracts were prepared containing all of the cellular histone material using detergent based lysis and sonication methods. These lysates were subsequently normalized for total protein content using a colorimetric bicinchonic acid assay (MicroBCA Pierce/Thermo Scientific). Normalized cell extracts were then subjected to typical immuno-blotting procedures using NuPage reagents (Life Technologies). […] The amount of tri-methylated lysine 4 of histone H3 was detected using an antibody specific to the tri-methylated state (Cell Signaling Technologies) and quantified on an infrared imager using a densitometry software package (Odyssey CLx, Image Studio, Li-Cor). This background subtracted densitometry value was reported as a ration of the GAPDH amount for that sample and then calculated as a percent of the DMSO treated sample. […]

The mark [1] stands for this setting: 1 nM Jarid1A, 300 nM H3K4me3-biotin peptide, 2 μM alpha-ketoglutaric acid.

Structures can show the parent of a compound that is named as a salt. Where two headings read alike, the source gives them in different places. A value given as a limit tells only on which side of the number the result lay.

The term IC50 denotes the concentration needed to halve the response being measured. For the compound `Cn1nc2ccccc2c1Nc1cnccc1C(=O)O` [Example 2, 3-[(2-methyl-2H-indazol-3-yl)amino]pyridine-4-carboxylic acid], the IC50 against JMJD2C lay within 0.1 to 1 µM; against Jarid1A (setting [1]), 1 to 10 µM; at Jarid1B it was 1 to 10 µM.
Turning to `CN(C)CCCCCn1nc(Nc2cnccc2C(=O)O)c2cc(F)ccc21` [Example 22], the IC50 was 0.1 to 1 µM on JMJD2C, < 0.1 µM against Jarid1A and < 0.1 µM at Jarid1B.
On to `O=C(O)c1ccncc1Nc1nn(Cc2ccccc2)c2ccc(F)cc12` [Example 24, 3-[(1-benzyl-5-fluoro-1H-indazol-3-yl)amino]pyridine-4-carboxylic acid], for which the IC50 was 0.1 to 1 µM against JMJD2C, > 10 µM with KDM5A/B, < 0.1 µM against Jarid1A (setting [1]) and < 0.1 µM at Jarid1B.
As to `CNCCCCCn1nc(Nc2cnccc2C(=O)O)c2cc(F)ccc21` [Example 46, 3-({5-fluoro-1-[5-(methylamino)pentyl]-1H-indazol-3-yl}amino)pyridine-4-carboxylic acid, trifluoroacetic acid salt], the IC50 on JMJD2C, against Jarid1A (setting [1]) and against Jarid1B was < 0.1 µM each time.
In the case of `CN(C)CC#CCn1nc(Nc2cnccc2C(=O)O)c2cc(F)ccc21` [Example 49, 3-({1-[4-(dimethylamino)but-2-yn-1-yl]-5-fluoro-1H-indazol-3-yl}amino)pyridine-4-carboxylic acid, trifluoroacetic acid salt], the IC50 on JMJD2C, against Jarid1A (setting [1]) and against Jarid1B was < 0.1 µM throughout.
Turning to `O=C(O)c1ccncc1Nc1nn(C2CCC(F)(F)CC2)c2ccc(F)cc12` [Example 64, 3-{[1-(4,4-difluorocyclohexyl)-5-fluoro-1H-indazol-3-yl]amino}pyridine-4-carboxylic acid], the IC50 against JMJD2C, against Jarid1A (setting [1]) and against Jarid1B was 1 to 10 µM throughout.
In the case of `N#CNC(=O)c1ccncc1Nc1nn(CCN2CCCC2)c2ccc(Cl)cc12` [Example 79, N-cyano-3-({5-chloro-1-[2-(pyrrolidin-1-yl)ethyl]-1H-indazol-3-yl}amino)pyridine-4-carboxamide], the IC50 against JMJD2C was in the range of 0.1 to 1 µM.
